In brackets after ≈: the same amount, converted by molar mass.
Columns and labels:
[1] = tested on: Mycobacterium tuberculosis; assay: Antimycobacterial activity against Mycobacterium tuberculosis incubated for 7 days by alamar blue assay; format: functional; conditions: 168 h
[2] = molecular target: DNA gyrase subunit A/DNA gyrase subunit B (Mycobacterium tuberculosis (strain ATCC 25618 / H37Rv), UniProt P9WG45+P9WG47); assay: Inhibition of Mycobacterium tuberculosis DNA gyrase assessed as inhibition of DNA supercoiling activity using relaxed pBR322 as substrate incubated for 30 mins by ethidium bromide staining based agarose gel electrophoresis
[3] = Cytotoxicity against mouse RAW264.7 cells assessed as inhibition of cell viability at 100 uM measured after 48 hrs by MTT assay relative to control; format: toxicity; conditions: read-out: INH
[4] = Cytotoxicity against mouse RAW264.7 cells assessed as inhibition of cell viability at 100 uM measured after 72 hrs by MTT assay relative to control; format: toxicity; conditions: read-out: INH
[5] = molecular target: DNA gyrase subunit B (Mycobacterium smegmatis, UniProt P0C559); assay: Inhibition of Mycobacterium smegmatis DNA gyrase B expressed in BL21(DE3)pLysS cells assessed as inhibition of […] activity in presence of ATP measured after 30 mins by malachite green dye based assay; format: cell-based, Mycolicibacterium smegmatis
Sequence of DNA gyrase subunit B (P0C559 whole entry): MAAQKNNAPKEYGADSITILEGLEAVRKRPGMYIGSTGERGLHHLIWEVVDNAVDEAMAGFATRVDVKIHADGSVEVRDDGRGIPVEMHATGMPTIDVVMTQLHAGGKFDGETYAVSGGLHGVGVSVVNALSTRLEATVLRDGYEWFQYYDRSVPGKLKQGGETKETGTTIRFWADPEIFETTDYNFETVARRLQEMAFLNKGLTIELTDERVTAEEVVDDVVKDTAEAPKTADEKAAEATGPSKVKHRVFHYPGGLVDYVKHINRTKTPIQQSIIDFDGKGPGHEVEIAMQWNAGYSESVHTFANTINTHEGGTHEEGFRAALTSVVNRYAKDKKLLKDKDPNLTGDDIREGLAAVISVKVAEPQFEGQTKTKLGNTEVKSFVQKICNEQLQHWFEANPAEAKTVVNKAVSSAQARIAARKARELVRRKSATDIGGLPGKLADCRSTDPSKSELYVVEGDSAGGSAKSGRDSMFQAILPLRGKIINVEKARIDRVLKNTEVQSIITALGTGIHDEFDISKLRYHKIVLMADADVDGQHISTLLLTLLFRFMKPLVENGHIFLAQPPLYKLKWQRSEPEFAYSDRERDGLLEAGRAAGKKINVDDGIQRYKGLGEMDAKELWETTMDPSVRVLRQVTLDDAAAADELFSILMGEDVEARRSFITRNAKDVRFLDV

Sequence of DNA gyrase subunit A/DNA gyrase subunit B (P9WG45 whole entry): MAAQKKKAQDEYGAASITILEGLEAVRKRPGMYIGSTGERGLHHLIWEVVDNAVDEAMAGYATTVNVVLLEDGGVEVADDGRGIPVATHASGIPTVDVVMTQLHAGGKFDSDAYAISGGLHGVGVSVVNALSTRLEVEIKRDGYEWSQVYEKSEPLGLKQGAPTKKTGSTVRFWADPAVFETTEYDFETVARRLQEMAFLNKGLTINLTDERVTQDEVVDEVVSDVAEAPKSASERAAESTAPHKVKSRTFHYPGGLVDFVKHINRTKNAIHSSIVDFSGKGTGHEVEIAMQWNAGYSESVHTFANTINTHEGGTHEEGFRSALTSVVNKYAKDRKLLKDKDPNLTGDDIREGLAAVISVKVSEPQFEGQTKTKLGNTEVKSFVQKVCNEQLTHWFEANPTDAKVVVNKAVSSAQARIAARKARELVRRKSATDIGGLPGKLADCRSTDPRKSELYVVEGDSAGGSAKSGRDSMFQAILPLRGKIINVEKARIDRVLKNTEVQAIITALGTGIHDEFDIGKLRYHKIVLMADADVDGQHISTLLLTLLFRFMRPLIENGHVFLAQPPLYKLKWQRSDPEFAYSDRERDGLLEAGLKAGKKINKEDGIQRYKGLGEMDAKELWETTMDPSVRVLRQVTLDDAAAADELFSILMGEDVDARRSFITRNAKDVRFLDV
Sequence of DNA gyrase subunit A/DNA gyrase subunit B (P9WG47 whole entry): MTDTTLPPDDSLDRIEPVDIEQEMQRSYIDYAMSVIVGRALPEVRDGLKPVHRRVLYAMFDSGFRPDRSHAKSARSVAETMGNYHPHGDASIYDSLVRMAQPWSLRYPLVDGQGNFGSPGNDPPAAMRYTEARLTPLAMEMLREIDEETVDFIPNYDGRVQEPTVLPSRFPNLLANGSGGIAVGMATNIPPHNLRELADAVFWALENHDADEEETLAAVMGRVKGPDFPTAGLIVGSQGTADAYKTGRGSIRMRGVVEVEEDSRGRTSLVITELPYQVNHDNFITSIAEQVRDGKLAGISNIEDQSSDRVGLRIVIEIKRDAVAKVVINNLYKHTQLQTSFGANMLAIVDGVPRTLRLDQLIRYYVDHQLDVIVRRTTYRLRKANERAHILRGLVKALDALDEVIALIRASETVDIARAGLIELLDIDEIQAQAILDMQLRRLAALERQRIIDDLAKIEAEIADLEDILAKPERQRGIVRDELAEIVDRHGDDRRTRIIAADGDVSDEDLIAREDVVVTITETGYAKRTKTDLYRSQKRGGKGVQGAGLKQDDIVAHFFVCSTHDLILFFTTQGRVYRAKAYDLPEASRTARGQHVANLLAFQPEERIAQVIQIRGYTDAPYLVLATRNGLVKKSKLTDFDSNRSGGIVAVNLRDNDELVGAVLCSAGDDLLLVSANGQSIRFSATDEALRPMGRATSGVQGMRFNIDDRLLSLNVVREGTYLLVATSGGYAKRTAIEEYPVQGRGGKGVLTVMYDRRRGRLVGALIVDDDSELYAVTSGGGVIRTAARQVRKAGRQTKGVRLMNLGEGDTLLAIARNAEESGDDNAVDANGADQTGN

Row | Structure (SMILES) | MIC [1] [µM] | IC50 [2] [µM] | cytotoxicity at 48 h, 100 µM [3] [%] | cytotoxicity at 72 h, 100 µM [4] [%] | IC50 [5] [µM]
1 | Cc1ccc(NC(=S)N2CCN(c3nc(=O)c4cc(Cl)ccc4s3)CC2)cc1 | 14.5 (≈ 6.25 µg/mL) | 11.6 | 2.48 |  | 
2 | COc1ccccc1CNN1CCN(CCN2C(=O)C(=O)c3ccccc32)CC1 |  | > 50 |  | 21.3 | 
3 | Cc1ccc(NC(=S)N2CCN(c3nc(=O)c4cc([N+](=O)[O-])ccc4s3)CC2)cc1 | 2.83 (≈ 1.25 µg/mL) | 0.82 | 4.22 |  | 
4 | O=c1nc(N2CCN(Cc3ccccc3)CC2)sc2ccc(C(F)(F)F)cc12 | 15.4 (≈ 6.25 µg/mL) | 11.5 |  |  | 
5 | O=c1nc(N2CCN(C(=S)Nc3ccc([N+](=O)[O-])cc3)CC2)sc2ccc([N+](=O)[O-])cc12 | 5.29 (≈ 2.5 µg/mL) | 2.59 | 2.21 |  | 
6 | O=C(Nc1ccc([N+](=O)[O-])cc1)N1CCN(c2nc(=O)c3cc(Cl)ccc3s2)CC1 | 5.24 (≈ 2.34 µg/mL) | 4.61 | 3.56 |  | 
7 | O=C(Nc1ccc([N+](=O)[O-])cc1)N1CCN(c2nc(=O)c3cc([N+](=O)[O-])ccc3s2)CC1 | 13.7 (≈ 6.24 µg/mL) | 9.11 | 15.2 |  | 
8 | COc1ccc2c(c1)C(=O)C(=O)N2CCN1CCN(NCc2ccccc2F)CC1 |  | > 50 |  | 16.3 | 
9 | COc1ccccc1CNN1CCN(CCN2C(=O)C(=O)c3cc(F)ccc32)CC1 |  | > 50 |  | 19.1 | 
10 | Cc1ccc2c(c1)C(=O)C(=O)N2CCN1CCN(NCc2ccccc2F)CC1 |  | 50 |  | 27.6 | 76
11 | Cc1ccc2c(c1)C(=O)C(=O)N2CCN1CCN(NCc2ccccc2OCc2ccccc2)CC1 |  | 10 |  | 34.6 | 28.3
12 | O=C1C(=O)N(CCN2CCN(NCc3cccc(Cl)c3Cl)CC2)c2ccc(F)cc21 |  | > 50 |  | 31.2 | 
13 | COc1ccc2c(c1)C(=O)C(=O)N2CCN1CCN(NCc2ccccc2C(F)(F)F)CC1 |  | 39.1 |  | 10.5 | 61.5
14 | COc1ccccc1CNN1CCN(CCN2C(=O)C(=O)c3cc(Cl)ccc32)CC1 |  | 50 |  | 24 | 76
15 | O=C(Nc1ccc(Cl)cc1)N1CCN(c2nc(=O)c3cc(Cl)ccc3s2)CC1 | 17.9 (≈ 7.8 µg/mL) | 10.5 | 2.56 |  | 
16 | O=C1C(=O)N(CCN2CCN(NCc3ccc(Cl)cc3Cl)CC2)c2ccccc21 |  | 40.3 |  | 18.5 | 84
17 | Cc1ccc(CN2CCN(c3nc(=O)c4cc(C(F)(F)F)ccc4s3)CC2)cc1 | 16.7 (≈ 7.02 µg/mL) | 11.6 | 18.6 |  | 
18 | Cc1ccc2c(c1)C(=O)C(=O)N2CCN1CCN(NCc2ccc(Cl)cc2Cl)CC1 |  | 48.9 |  | 25.3 | 79
19 | O=c1nc(N2CCN(Cc3ccc([N+](=O)[O-])cc3)CC2)sc2ccc([N+](=O)[O-])cc12 | 7.31 (≈ 3.12 µg/mL) | 4.21 | 21.4 |  | 
20 | O=C1C(=O)N(CCN2CCN(NCc3ccccc3OCc3ccccc3)CC2)c2ccc(F)cc21 |  | 42.3 |  | 11.7 | 70.1
21 | O=C1C(=O)N(CCN2CCN(NCc3ccccc3F)CC2)c2ccccc21 |  | 43.6 |  | 10.3 | 83

Row | Structure (SMILES) | MIC [1] [µM] | IC50 [2] [µM] | cytotoxicity at 48 h, 100 µM [3] [%] | cytotoxicity at 72 h, 100 µM [4] [%] | IC50 [5] [µM]
22 | O=c1nc(N2CCN(C(=S)Nc3ccc(Cl)cc3)CC2)sc2ccc([N+](=O)[O-])cc12 | 4.41 (≈ 2.04 µg/mL) | 0.51 | 1.81 |  | 
23 | O=C1C(=O)N(CCN2CCN(NCc3ccc([N+](=O)[O-])o3)CC2)c2ccccc21 |  | 4.6 |  | 30.6 | 20.2
24 | Cc1ccc(NC(=S)N2CCN(c3nc(=O)c4cc(C(F)(F)F)ccc4s3)CC2)cc1 | 9.54 (≈ 4.43 µg/mL) | 4.51 | 16.4 |  | 
25 | COc1ccc2c(c1)C(=O)C(=O)N2CCN1CCN(NCc2ccc(Cl)cc2Cl)CC1 |  | 4.1 |  | 26.4 | 15.8
26 | O=c1nc(N2CCN(C(=S)Nc3ccc([N+](=O)[O-])cc3)CC2)sc2ccc(C(F)(F)F)cc12 | 5.04 (≈ 2.5 µg/mL) | 2.16 | 5.48 |  | 
27 | O=C1C(=O)N(CCN2CCN(NCc3ccccc3OCc3ccccc3)CC2)c2ccccc21 |  | 10 |  | 13.9 | 26.6
28 | O=c1nc(N2CCN(Cc3ccc(Cl)cc3)CC2)sc2ccc([N+](=O)[O-])cc12 | 5.99 (≈ 2.5 µg/mL) | 3.68 | 1.56 |  | 
29 | COc1ccc2c(c1)C(=O)C(=O)N2CCN1CCN(NCc2ccc([N+](=O)[O-])o2)CC1 |  | > 50 |  | 31.6 | 
30 | Cc1ccc(NC(=O)N2CCN(c3nc(=O)c4cc([N+](=O)[O-])ccc4s3)CC2)cc1 | 14.7 (≈ 6.25 µg/mL) | 9.62 | 16.2 |  | 
31 | O=C1C(=O)N(CCN2CCN(NCc3ccccc3F)CC2)c2ccc(Cl)cc21 |  | > 50 |  | 17.6 | 
32 | O=C(Nc1ccccc1)N1CCN(c2nc(=O)c3cc([N+](=O)[O-])ccc3s2)CC1 | 30.4 (≈ 12.5 µg/mL) | 16.8 |  |  | 
33 | O=c1nc(N2CCN(Cc3ccc(Cl)cc3)CC2)sc2ccc(Cl)cc12 | 15.4 (≈ 6.25 µg/mL) | 12.1 | 5.36 |  | 
34 | Cc1ccc2c(c1)C(=O)C(=O)N2CCN1CCN(NCc2ccccc2)CC1 |  | > 50 |  | 19.7 | 
35 | COc1ccc2c(c1)C(=O)C(=O)N2CCN1CCN(NCc2ccccc2OCc2ccccc2)CC1 |  | 36.5 |  | 16.3 | 69.7
36 | O=c1nc(N2CCN(C(=S)Nc3ccccc3)CC2)sc2ccc(Cl)cc12 | 11.2 (≈ 4.68 µg/mL) | 10.9 | 2.35 |  | 
37 | O=C1C(=O)N(CCN2CCN(NCc3ccccc3)CC2)c2ccccc21 |  | > 50 |  | 7.6 | 
38 | Cc1ccc(CN2CCN(c3nc(=O)c4cc(Cl)ccc4s3)CC2)cc1 | 24.2 (≈ 9.36 µg/mL) | 21.5 | 2.36 |  | 
39 | Cc1ccc2c(c1)C(=O)C(=O)N2CCN1CCN(NCc2ccc([N+](=O)[O-])o2)CC1 |  | > 50 |  | 27.8 | 
40 | CO[C@@H]1[C@@H](OC(N)=O)[C@@H](O)[C@H](Oc2ccc3c(O)c(NC(=O)c4ccc(O)c(CC=C(C)C)c4)c(=O)oc3c2C)OC1(C)C [NOVOBIOCIN] | > 200 |  | 7.56 |  | 
41 | O=c1nc(N2CCN(Cc3ccc([N+](=O)[O-])cc3)CC2)sc2ccc(Cl)cc12 | 15 (≈ 6.25 µg/mL) | 7.33 | 5.48 |  | 
42 | O=C1C(=O)N(CCN2CCN(NCc3ccc([N+](=O)[O-])o3)CC2)c2ccc(F)cc21 |  | > 50 |  | 37.8 | 

Row | Structure (SMILES) | MIC [1] [µM] | IC50 [2] [µM] | cytotoxicity at 48 h, 100 µM [3] [%] | cytotoxicity at 72 h, 100 µM [4] [%] | IC50 [5] [µM]
43 | O=c1nc(N2CCN(Cc3ccc([N+](=O)[O-])cc3)CC2)sc2ccc(C(F)(F)F)cc12 | 5.19 (≈ 2.34 µg/mL) | 4.55 | 14.6 |  | 
44 | O=c1nc(N2CCN(C(=S)Nc3ccc(Cl)cc3)CC2)sc2ccc(C(F)(F)F)cc12 | 8.59 (≈ 4.17 µg/mL) | 4.23 | 3.15 |  | 
45 | O=C1C(=O)N(CCN2CCN(NCc3ccccc3)CC2)c2ccc(F)cc21 |  | > 50 |  | 29.3 | 
46 | O=C1C(=O)N(CCN2CCN(NCc3ccccc3)CC2)c2ccc(Cl)cc21 |  | > 50 |  | 22.3 | 
47 | O=C(Nc1ccccc1)N1CCN(c2nc(=O)c3cc(C(F)(F)F)ccc3s2)CC1 | 19.2 (≈ 8.33 µg/mL) | 11 |  |  | 
48 | Cc1ccc2c(c1)C(=O)C(=O)N2CCN1CCN(NCc2ccccc2C(F)(F)F)CC1 |  | > 50 |  | 13.6 | 
49 | O=C(Nc1ccc(Cl)cc1)N1CCN(c2nc(=O)c3cc([N+](=O)[O-])ccc3s2)CC1 | 28 (≈ 12.5 µg/mL) | 23.7 |  |  | 
50 | O=C(Nc1ccc([N+](=O)[O-])cc1)N1CCN(c2nc(=O)c3cc(C(F)(F)F)ccc3s2)CC1 | 52.1 (≈ 25 µg/mL) | 26.5 |  |  | 
51 | Cc1ccc(CN2CCN(c3nc(=O)c4cc([N+](=O)[O-])ccc4s3)CC2)cc1 | 15.8 (≈ 6.25 µg/mL) | 8.93 | 26.5 |  | 
52 | O=C(Nc1ccccc1)N1CCN(c2nc(=O)c3cc(Cl)ccc3s2)CC1 | 15.6 (≈ 6.25 µg/mL) | 17.5 | 16.5 |  | 
53 | O=c1nc(N2CCN(Cc3ccc(Cl)cc3)CC2)sc2ccc(C(F)(F)F)cc12 | 6.31 (≈ 2.78 µg/mL) | 3.86 | 8.45 |  | 
54 | O=c1nc(N2CCN(Cc3ccccc3)CC2)sc2ccc(Cl)cc12 | 33.6 (≈ 12.5 µg/mL) | 17.6 |  |  | 
55 | Cc1ccc(NC(=O)N2CCN(c3nc(=O)c4cc(Cl)ccc4s3)CC2)cc1 | 6.02 (≈ 2.5 µg/mL) | 2.62 | 5.14 |  | 
56 | O=c1nc(N2CCN(C(=S)Nc3ccccc3)CC2)sc2ccc([N+](=O)[O-])cc12 | 1.82 (≈ 0.778 µg/mL) | 0.77 | 3.25 |  | 
57 | Cc1ccc(NC(=O)N2CCN(c3nc(=O)c4cc(C(F)(F)F)ccc4s3)CC2)cc1 | 11.5 (≈ 5.18 µg/mL) | 5.26 | 7.56 |  | 
58 | O=c1nc(N2CCN(C(=S)Nc3ccc([N+](=O)[O-])cc3)CC2)sc2ccc(Cl)cc12 | 13.5 (≈ 6.25 µg/mL) | 6.23 | 1.45 |  | 
59 | O=c1nc(N2CCN(C(=S)Nc3ccccc3)CC2)sc2ccc(C(F)(F)F)cc12 | 4.62 (≈ 2.08 µg/mL) | 0.83 | 6.48 |  | 
60 | O=c1nc(N2CCN(C(=S)Nc3ccc(Cl)cc3)CC2)sc2ccc(Cl)cc12 | 6.92 (≈ 3.12 µg/mL) | 6.86 | 25.6 |  | 
61 | O=c1nc(N2CCN(Cc3ccccc3)CC2)sc2ccc([N+](=O)[O-])cc12 | 4.08 (≈ 1.56 µg/mL) | 3.21 | 5.41 |  | 
62 | O=C(Nc1ccc(Cl)cc1)N1CCN(c2nc(=O)c3cc(C(F)(F)F)ccc3s2)CC1 | 13.3 (≈ 6.25 µg/mL) | 10.5 | 10.2 |  | 

From ChEMBL document CHEMBL3875146, “Mycobacterium Tuberculosis (MTB) GyrB inhibitors: An attractive approach for developing novel drugs against TB” (Eur J Med Chem, 2016)
